27 compounds from patent publication US9980943B2, “Methods of treating muscular dystrophy” (BOARD OF REGENTS OF THE NEVADA SYSTEM OF HIGHER EDUCATION, …, priority 2013, dated 2018) can be followed below.

Like-named read-outs stand apart in the source and are kept apart here.

The assay deals with α7 integrin (LacZ reporter in α7LacZ+/− myoblasts). In words: qHTS of the LOPAC library and MLSMR (online screen, α7LacZ+/− myoblasts). The following applies: Mus musculus, Myoblast; for activation at 0.307 µM: read-out: Activity at 0.307 uM [%] **; for activation at 1.53 µM: read-out: Activity at 1.530 uM [%] **; for activation at 7.66 µM: read-out: Activity at 7.660 uM [%] **; for activation at 38.3 µM: read-out: Activity at 38.30uM [%] **; for EC50: read-out: Fit LogAC50 (converted). In general terms: In qHTS, concentration-response curves come from the screen itself.

The mark [1] stands for this setting: 48 h, read-out: Fit Infinite Activity [%].

For `CCC(CC)C(=O)Nc1c(C(=O)N2CCN(c3ccccc3)CC2)oc2ccccc12` [Compound 73], the EC50 is 12.6 µM. Also, where the note is “48 h”, the activation at 0.307 µM turned out to be 13.5%, the activation at 1.53 µM is 18.6%, the activation at 7.66 µM is 35.7% and the activation at 38.3 µM is 185%. The Emax under setting [1] was found to be 187%. Further, the Emax (read-out: Max Response [%]) worked out at 185%.
As for `CNC(=O)/C(=C\c1cccc(Oc2ccccc2)c1)NC(=O)c1ccccc1` [Compound 211], under “48 h”, the activation at 0.307 µM was found to be 0.23%, the activation at 1.53 µM amounted to 11.6%, the activation at 7.66 µM came out at 43% and the activation at 38.3 µM stood at 87.9%. Also, under setting [1], the Emax was determined as 110%. Further, the Emax (read-out: Max Response [%]) is 87.9%.
With `COC(=O)C1=C(C)N=C(C)/C(=C(/O)OC)C1c1ccccc1OCc1c(C)no[n+]1[O-]` (stereo not drawn) [Compound 12], the EC50 is 2.82 µM. Where the note is “48 h”, the activation at 0.307 µM came to 12.3%, the activation at 1.53 µM came to 36.5%, the activation at 7.66 µM stood at 84.6% and the activation at 38.3 µM was 100%. Under setting [1], the Emax is 102%.
On to `Cc1ccc(-c2csc(Nc3ccc(C(=O)O)cc3)[n+]2Cc2ccccc2)cc1` [Compound 126], for which, for the setting “48 h”, the activation at 0.307 µM was found to be 5.18%, the activation at 1.53 µM came out at 19%, the activation at 7.66 µM stood at 58.1% and the activation at 38.3 µM came to 102%. For the same compound, under setting [1], the Emax stood at 125%. For the same compound, for the setting “read-out: Max Response [%]”, the Emax was 102%.
With `COc1ccc(S(=O)(=O)Nc2ccc(S(=O)(=O)Nc3nccs3)cc2)cc1` [Compound 152], for the setting “48 h”, the activation at 0.307 µM is -6.73%, the activation at 1.53 µM came to 0%, the activation at 7.66 µM amounted to 26.3% and the activation at 38.3 µM came to 67.4%. In addition, under setting [1], the Emax was 88.8%. In addition, for the setting “read-out: Max Response [%]”, the Emax was 67.4%.
For the compound `COc1cc(NC(=O)CN(C)S(=O)(=O)c2ccc3c(c2)CC(C)N3C(C)=O)cc(OC)c1OC` (stereo not drawn) [Compound 145], the EC50 was 10 µM. For the same compound, under “48 h”, the activation at 0.307 µM was found to be 0.302%, the activation at 1.53 µM was 0.181%, the activation at 7.66 µM was determined as 15.7% and the activation at 38.3 µM worked out at 70.5%. Under setting [1], the Emax was determined as 70.5%. Besides, where the note is “read-out: Max Response [%]”, the Emax is 70.5%.
Consider `C/C(CC(=O)Nc1ccc(Cl)c(C(F)(F)F)c1)=N\NC(=O)c1cnccn1` [Compound 38], for which the EC50 is 4.47 µM. For the same compound, under “48 h”, the activation at 0.307 µM was -0.625%, the activation at 1.53 µM is -2.88%, the activation at 7.66 µM was 69.2% and the activation at 38.3 µM was 72.7%. The Emax under setting [1] is 73.5%.
Regarding `O=C(NC(=S)NCCC1=CCCCC1)c1ccc(Br)o1` [Compound 205], for the setting “48 h”, the activation at 0.307 µM was -39.4%, the activation at 1.53 µM was -31.7%, the activation at 7.66 µM came out at 12.1% and the activation at 38.3 µM worked out at 50.2%. Besides, under setting [1], the Emax amounted to 57.8%. Also, the Emax (read-out: Max Response [%]) is 50.2%.
`O=C(Nc1ccc(S(=O)(=O)Nc2nccs2)cc1)c1ccccc1OC(F)F` [Compound 137]: the EC50 is 10 µM. Further, where the note is “48 h”, the activation at 0.307 µM was -19.2%, the activation at 1.53 µM was -19.4%, the activation at 7.66 µM is -1.67% and the activation at 38.3 µM amounted to 61.8%. In addition, the Emax under setting [1] is 61.7%. In addition, the Emax (read-out: Max Response [%]) turned out to be 61.8%.
For the compound `CCS(=O)(=O)N1CCN(c2ccc([N+](=O)[O-])c(NCC3CCCO3)c2)CC1` (stereo not drawn) [Compound 204], the EC50 was 10 µM. Also, for the setting “48 h”, the activation at 0.307 µM was 0.881%, the activation at 1.53 µM is 0.157%, the activation at 7.66 µM amounted to 20.1% and the activation at 38.3 µM was 70.3%. Further, under setting [1], the Emax came out at 70.8%. The Emax (read-out: Max Response [%]) was found to be 70.3%.
Turning to `C/C(=N\OCC(=O)OC(C)C(=O)Nc1ccc(C(N)=O)cc1)c1ccc2c(c1)OCO2` (stereo not drawn) [Compound 70], the EC50 is 4.47 µM. In addition, where the note is “48 h”, the activation at 0.307 µM is -15.5%, the activation at 1.53 µM came to 4.11%, the activation at 7.66 µM stood at 57.2% and the activation at 38.3 µM amounted to 89.5%. Also, the Emax under setting [1] turned out to be 96.1%. Where the note is “read-out: Max Response [%]”, the Emax was 89.5%.
For the compound `CCc1ccc(N(C(=O)c2snc(C(N)=O)c2N)C(C(=O)NC2CCCC2)c2ccco2)cc1` (stereo not drawn) [Compound 17], the EC50 is 2.51 µM. Moreover, for the setting “48 h”, the activation at 0.307 µM was -18.3%, the activation at 1.53 µM was found to be 9.37%, the activation at 7.66 µM is 52.7% and the activation at 38.3 µM worked out at 67.6%. Moreover, the Emax under setting [1] is 71.4%.
In the case of `O=C(COc1cc2oc(=O)c3c(c2cc1Cl)CCCC3)NC[C@H]1CC[C@H](C(=O)O)CC1` [Compound 95], the EC50 is 7.08 µM. For the same compound, for the setting “48 h”, the activation at 0.307 µM is -12.4%, the activation at 1.53 µM is 3.06%, the activation at 7.66 µM was 36.2% and the activation at 38.3 µM stood at 67.9%. The Emax under setting [1] amounted to 83.4%. Besides, under “read-out: Max Response [%]”, the Emax was 67.9%.
Consider `CC(C)(C)c1ccc(C(=O)OCC(=O)Nc2sc3c(c2C#N)CCC3)cc1` [Compound 85], for which the EC50 was 5.01 µM. For the setting “48 h”, the activation at 0.307 µM was found to be 3.25%, the activation at 1.53 µM is 13.3%, the activation at 7.66 µM was 71.6% and the activation at 38.3 µM stood at 101%. Further, the Emax under setting [1] came out at 103%. For the same compound, the Emax (read-out: Max Response [%]) was 101%.
`CC(=O)Nc1ccc(NC(=O)[C@@H](NC(=O)c2cccc(C)c2)C(C)C)cc1` [Compound 47]: the EC50 was 5.62 µM. In addition, under “48 h”, the activation at 0.307 µM is 17.2%, the activation at 1.53 µM is 32.2%, the activation at 7.66 µM came to 97.3% and the activation at 38.3 µM was determined as 142%. Moreover, the Emax under setting [1] amounted to 154%.
`Cc1cc(OCC(=O)NC(C)C)ccc1Cl` [Compound 11]: the EC50 is 3.98 µM. Further, where the note is “48 h”, the activation at 0.307 µM was 0%, the activation at 1.53 µM was found to be 7.6%, the activation at 7.66 µM came out at 83.9% and the activation at 38.3 µM was 102%. Also, the Emax under setting [1] worked out at 101%.
For `COC(=O)C(=O)C/C(=N/Nc1ncnc2ccccc12)c1ccc(Cl)cc1` [Compound 18], the EC50 is 10 µM. In addition, where the note is “48 h”, the activation at 0.307 µM is 7.75%, the activation at 1.53 µM was determined as 30.6% and the activation at 7.66 µM is 358%.
`COc1cc2c(cc1OC)C(NC(=O)C(F)(F)F)C/C2=N\O` (stereo not drawn) [Compound 193]: for the setting “48 h”, the activation at 0.307 µM is 3.74%, the activation at 1.53 µM worked out at 2%, the activation at 7.66 µM came to 17.9% and the activation at 38.3 µM amounted to 91.5%. For the same compound, under setting [1], the Emax turned out to be 92.3%. In addition, the Emax (read-out: Max Response [%]) is 91.5%.
Turning to `CCNC(=O)COC(=O)c1cc(-c2ccco2)nc2ccccc12` [Compound 175], under “48 h”, the activation at 0.307 µM was -59.9%, the activation at 1.53 µM was -45.5%, the activation at 7.66 µM is 5.39% and the activation at 38.3 µM is 48.1%. Further, the Emax under setting [1] is 54%. For the same compound, the Emax (read-out: Max Response [%]) is 48.1%.
For `O=C(CCc1ccccc1)c1nnc(-c2ccccc2)o1` [Compound 183], the EC50 is 10 µM. Under “48 h”, the activation at 0.307 µM is 0%, the activation at 1.53 µM was determined as 2.03%, the activation at 7.66 µM is 24.4% and the activation at 38.3 µM was determined as 99.5%. Under setting [1], the Emax worked out at 99.7%. Moreover, the Emax (read-out: Max Response [%]) was 99.5%.
Turning to `CNc1cc([N+](=O)[O-])ccc1OCc1ccccc1` [Compound 79], the EC50 is 4.47 µM. For the same compound, where the note is “48 h”, the activation at 0.307 µM amounted to 1.52%, the activation at 1.53 µM amounted to 16.2%, the activation at 7.66 µM was found to be 57.3% and the activation at 38.3 µM was 80.2%. Also, the Emax under setting [1] stood at 84.8%. In addition, the Emax (read-out: Max Response [%]) was 80.2%.
Turning to `COc1ccc(Cl)cc1NC(=O)CC(=O)Nc1cc(Cl)ccc1OC` [Compound 41], the EC50 is 14.1 µM. In addition, under “48 h”, the activation at 0.307 µM is 8.75%, the activation at 1.53 µM was determined as 9.71%, the activation at 7.66 µM came out at 34.1% and the activation at 38.3 µM was determined as 453%. For the same compound, under setting [1], the Emax came to 457%.
For `Cc1ccc(C2Nc3cccc4cccc(c34)N2)s1` [Compound 24], the EC50 is 3.16 µM. Also, for the setting “48 h”, the activation at 0.307 µM is 5.89%, the activation at 1.53 µM was 19.6%, the activation at 7.66 µM was determined as 73.1% and the activation at 38.3 µM is 81.3%. For the same compound, under setting [1], the Emax was determined as 82.7%.
For the compound `COc1ccc(O)c(/C=N/NC(=O)c2cc(O)nc3ccccc23)c1` [Compound 179], for the setting “48 h”, the activation at 0.307 µM was -35.4%, the activation at 1.53 µM was -32.2%, the activation at 7.66 µM is 20.9% and the activation at 38.3 µM worked out at 46.8%. Besides, under setting [1], the Emax is 48.4%. The Emax (read-out: Max Response [%]) turned out to be 46.8%.
On to `C/N=c1\scc(-c2ccc(OC)cc2)n1/N=C(\C)c1cccnc1` [Compound 118], for which the EC50 was 5.01 µM. Further, under “48 h”, the activation at 0.307 µM is -8.12%, the activation at 1.53 µM was 2.29%, the activation at 7.66 µM came out at 48.7% and the activation at 38.3 µM amounted to 73.6%. Further, the Emax under setting [1] amounted to 74.9%. Moreover, under “read-out: Max Response [%]”, the Emax is 73.6%.
For the compound `Cc1ccc(NC(=O)COc2ccccc2CNC(C)(C)CC(C)(C)C)cc1` [Compound 131], where the note is “48 h”, the activation at 0.307 µM worked out at 10.7%, the activation at 1.53 µM stood at 7.12%, the activation at 7.66 µM worked out at 16.2% and the activation at 38.3 µM was determined as 182%. Under setting [1], the Emax is 184%. Moreover, the Emax (read-out: Max Response [%]) stood at 182%.
Regarding `Cc1ccc(C2=C(CC(=O)O)C(=O)CC2)cc1` [Compound 86], the EC50 was 4.47 µM. Moreover, where the note is “48 h”, the activation at 0.307 µM came to 10.4%, the activation at 1.53 µM amounted to 28.9%, the activation at 7.66 µM came to 57.4% and the activation at 38.3 µM stood at 80.4%. Also, the Emax under setting [1] was determined as 94.7%. Besides, the Emax (read-out: Max Response [%]) is 80.4%.
